Several values for one entry are separate records, joined by “and”; a condition that tells them apart may be missing. Identical values can stand only once. Inconclusive results and toxic doses are left out. How the source made its calls: active means survival T/C of 150% or more; inactive means T/C below 125% in these data.
Test system: P388 leukemia ip, CD2F1 mice, survival T/C
Assay: NCI In Vivo Anticancer Drug Screen. Data for tumor model P388 Leukemia (intraperitoneal) in CD2F1 (CDF1) mice
Settings: endpoint: median survival time, higher = longer survival
In short: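 Mice carrying the transplanted tumor received test compound or vehicle. Survival was recorded in each group, and the value is the treated-group measurement divided by that of the vehicle-treated control group.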

[1] = dose: 100.0 mg/kg/injection, schedule: Q04DX002 (ip), vehicle: Klucel (hydroxypropylcellulose) (HPC)
[2] = dose: 200.0 mg/kg/injection, schedule: Q04DX002 (ip), vehicle: Klucel (hydroxypropylcellulose) (HPC)
[3] = dose: 35.0 mg/kg/injection, schedule: Q01DX009 (ip), vehicle: Klucel (hydroxypropylcellulose) (HPC)
[4] = dose: 50.0 mg/kg/injection, schedule: Q01DX009 (ip), vehicle: Klucel (hydroxypropylcellulose) (HPC)
[5] = dose: 100.0 mg/kg/injection, schedule: Q01DX009 (ip), vehicle: Klucel (hydroxypropylcellulose) (HPC)
[6] = dose: 200.0 mg/kg/injection, schedule: Q01DX009 (ip), vehicle: Klucel (hydroxypropylcellulose) (HPC)
[7] = dose: 50.0 mg/kg/injection, schedule: Q01DX009 (ip), vehicle: saline with Tween-80
[8] = dose: 100.0 mg/kg/injection, schedule: Q01DX009 (ip), vehicle: saline with Tween-80
[9] = dose: 200.0 mg/kg/injection, schedule: Q01DX009 (ip), vehicle: saline with Tween-80
[10] = dose: 12.5 mg/kg/injection, schedule: Q01DX009 (ip), vehicle: saline with Tween-80
[11] = dose: 25.0 mg/kg/injection, schedule: Q01DX009 (ip), vehicle: saline with Tween-80

Measured: T/C

COc1cc2c(c3c1C(=O)c1c(cc4c(c1O)C(OC1OC(C)C(OC)C(C)(OC)C1OC)CC(C)(O)C4)C3=O)OC1OC2(C)C(O)C(N(C)C)C1O (stereo unspecified)
active: dose: 5.0 mg/kg/injection, schedule: Q01DX009 (ip), vehicle: other 153 % of control | dose: 10.0 mg/kg/injection, schedule: Q01DX009 (ip), vehicle: other 159 % of control | dose: 20.0 mg/kg/injection, schedule: Q01DX009 (ip), vehicle: other 168 % of control

O=C(O)/C=N/OCc1cc2c(cc1Cl)OCO2
inactive: dose: 50.0 mg/kg/injection, schedule: Q04DX003 (ip), vehicle: saline sonified 100 % of control | dose: 100.0 mg/kg/injection, schedule: Q04DX003 (ip), vehicle: saline sonified 100 % of control | dose: 200.0 mg/kg/injection, schedule: Q04DX003 (ip), vehicle: saline sonified 105 % of control

CC1=CC2C(=O)N(C)C1c1ccccc12 (stereo unspecified)
inactive: [1] 100 % of control | [2] 100 % of control | dose: 400.0 mg/kg/injection, schedule: Q04DX002 (ip), vehicle: Klucel (hydroxypropylcellulose) (HPC) 97 % of control

CCCCCCCCN=Cc1c(O)c(O)c(C(C)C)c2cc(C)c(-c3c(C)cc4c(C(C)C)c(O)c(O)c(C=NCCCCCCCC)c4c3O)c(O)c12
inactive: dose: 25.0 mg/kg/injection, schedule: Q01DX005 (ip), vehicle: Klucel (hydroxypropylcellulose) (HPC) 95 % of control | dose: 50.0 mg/kg/injection, schedule: Q01DX005 (ip), vehicle: Klucel (hydroxypropylcellulose) (HPC) 98 % of control | dose: 100.0 mg/kg/injection, schedule: Q01DX005 (ip), vehicle: Klucel (hydroxypropylcellulose) (HPC) 98 % of control | dose: 200.0 mg/kg/injection, schedule: Q01DX005 (ip), vehicle: Klucel (hydroxypropylcellulose) (HPC) 93 % of control

Cc1nc(C)c(Cl)c(OS(=O)(=O)CCCCl)c1Cl
inactive: dose: 25.0 mg/kg/injection, schedule: Q01DX009 (ip), vehicle: Klucel (hydroxypropylcellulose) (HPC) 110 % of control (2×) and 92 % of control | [3] 110 % of control and 95 % of control | [4] 105 % of control and 120 % of control and 95 % of control | dose: 75.0 mg/kg/injection, schedule: Q01DX009 (ip), vehicle: Klucel (hydroxypropylcellulose) (HPC) 94 % of control

Cc1ccc(S(=O)(=O)N=S(CCO)CCO)cc1
inactive: [4] 106 % of control | [5] 110 % of control | [6] 108 % of control | dose: 400.0 mg/kg/injection, schedule: Q01DX009 (ip), vehicle: Klucel (hydroxypropylcellulose) (HPC) 107 % of control

O=C(CC(O)(C(F)(F)F)C(F)(F)F)c1ccco1
inactive: dose: 33.0 mg/kg/injection, schedule: Q01DX009 (ip), vehicle: saline with Tween-80 110 % of control

CC#CS(=O)C#CC
inactive: dose: 3.12 mg/kg/injection, schedule: Q01DX009 (ip), vehicle: distilled water + alcohol 105 % of control | dose: 6.25 mg/kg/injection, schedule: Q01DX009 (ip), vehicle: distilled water + alcohol 105 % of control

CC(=O)OC1CN(c2ccc(Br)cc2)CC(OC(C)=O)CN(c2ccc(Br)cc2)C1 (stereo unspecified)
inactive: [4] 99 % of control | [5] 100 % of control | [6] 97 % of control

Nc1ncnc2cc3cn[nH]c3cc12
inactive: dose: 12.5 mg/kg/injection, schedule: Q01DX005 (ip), vehicle: saline with Tween-80 96 % of control | dose: 25.0 mg/kg/injection, schedule: Q01DX005 (ip), vehicle: saline with Tween-80 95 % of control | dose: 50.0 mg/kg/injection, schedule: Q01DX005 (ip), vehicle: saline with Tween-80 94 % of control and 97 % of control | dose: 100.0 mg/kg/injection, schedule: Q01DX005 (ip), vehicle: saline with Tween-80 91 % of control | dose: 200.0 mg/kg/injection, schedule: Q01DX005 (ip), vehicle: saline with Tween-80 100 % of control

COc1ccc(C(=O)CCc2c[nH]c3ccccc23)c(O)c1
inactive: dose: 60.0 mg/kg/injection, schedule: Q01DX005 (ip), vehicle: saline with Tween-80 101 % of control | dose: 120.0 mg/kg/injection, schedule: Q01DX005 (ip), vehicle: saline with Tween-80 112 % of control | dose: 240.0 mg/kg/injection, schedule: Q01DX005 (ip), vehicle: saline with Tween-80 92 % of control

C[C@@H]1C(=O)CC23COC(=O)C2=CCCC3[C@@]1(C)CCC1COC(=O)C1 (stereo partly specified)
inactive: dose: 12.5 mg/kg/injection, schedule: Q01DX005 (ip), vehicle: distilled water + alcohol 100 % of control | dose: 25.0 mg/kg/injection, schedule: Q01DX005 (ip), vehicle: distilled water + alcohol 100 % of control | dose: 50.0 mg/kg/injection, schedule: Q01DX005 (ip), vehicle: distilled water + alcohol 106 % of control | dose: 60.0 mg/kg/injection, schedule: Q01DX005 (ip), vehicle: distilled water + alcohol 101 % of control | dose: 100.0 mg/kg/injection, schedule: Q01DX005 (ip), vehicle: distilled water + alcohol 107 % of control | dose: 120.0 mg/kg/injection, schedule: Q01DX005 (ip), vehicle: distilled water + alcohol 108 % of control | dose: 240.0 mg/kg/injection, schedule: Q01DX005 (ip), vehicle: distilled water + alcohol 110 % of control

O=C(NC(=O)Nc1ccc(Cl)cc1)NC(=O)c1ccccc1F
inactive: [7] 114 % of control | [8] 101 % of control | [9] 95 % of control

O=[N+]([O-])c1ccc(Nc2ccccc2[N+](=O)[O-])cc1
inactive: dose: 7.5 mg/kg/injection, schedule: Q01DX009 (ip), vehicle: saline with Tween-80 94 % of control | dose: 15.0 mg/kg/injection, schedule: Q01DX009 (ip), vehicle: saline with Tween-80 94 % of control | dose: 30.0 mg/kg/injection, schedule: Q01DX009 (ip), vehicle: saline with Tween-80 91 % of control

CCCCCCCCCCCCCCCCC(C(=O)O)C(O)(CC(=O)O)C(=O)O (stereo unspecified)
inactive: dose: 8.75 mg/kg/injection, schedule: Q01DX009 (ip), vehicle: Klucel (hydroxypropylcellulose) (HPC) 95 % of control | [10] 91 % of control | dose: 17.5 mg/kg/injection, schedule: Q01DX009 (ip), vehicle: Klucel (hydroxypropylcellulose) (HPC) 101 % of control | [11] 94 % of control | [3] 95 % of control | dose: 70.0 mg/kg/injection, schedule: Q01DX009 (ip), vehicle: Klucel (hydroxypropylcellulose) (HPC) 87 % of control | [8] 90 % of control

C=Cn1c([N+](=O)[O-])cnc1/C=C/c1ccc(C(=O)OCCN(CC)CC)cc1
inactive: [1] 99 % of control | [2] 103 % of control

CCOC(=O)/C(=C/Nc1ccc(OCc2ccccc2)cc1)NC(=O)c1ccccc1
inactive: [7] 87 % of control | dose: 50.0 mg/kg/injection, schedule: Q01DX009 (ip), vehicle: saline 86 % of control | [8] 86 % of control | dose: 100.0 mg/kg/injection, schedule: Q01DX009 (ip), vehicle: saline 86 % of control | [9] 87 % of control | dose: 200.0 mg/kg/injection, schedule: Q01DX009 (ip), vehicle: saline 88 % of control | dose: 400.0 mg/kg/injection, schedule: Q01DX009 (ip), vehicle: saline with Tween-80 97 % of control | dose: 400.0 mg/kg/injection, schedule: Q01DX009 (ip), vehicle: saline 97 % of control

Nc1ccccc1C(=O)N/N=C\c1ccc(O)cc1
inactive: [10] 94 % of control | [11] 89 % of control and 91 % of control | [7] 101 % of control and 94 % of control | [8] 99 % of control and 87 % of control

O=C1c2ccccc2C(=O)c2c3c(cc(NCCNCCO)c21)N(CCO)CCN3
inactive: dose: 6.25 mg/kg/injection, schedule: Q01DX009 (ip), vehicle: DMSO 104 % of control | dose: 12.5 mg/kg/injection, schedule: Q01DX009 (ip), vehicle: DMSO 123 % of control | dose: 100.0 mg/kg/injection, schedule: Q01DX009 (ip), vehicle: DMSO 101 % of control | dose: 200.0 mg/kg/injection, schedule: Q01DX009 (ip), vehicle: DMSO 93 % of control
active: dose: 25.0 mg/kg/injection, schedule: Q01DX009 (ip), vehicle: DMSO 155 % of control | dose: 50.0 mg/kg/injection, schedule: Q01DX009 (ip), vehicle: DMSO 163 % of control

Nn1c(-c2ccc(Cl)c(Cl)c2)nc2ccccc2c1=O
inactive: [7] 89 % of control | [8] 99 % of control | [9] 98 % of control

CCOC(=O)c1cc(=O)[nH]c2cc(N)ccc12
inactive: dose: 60.0 mg/kg/injection, schedule: Q01DX005 (ip), vehicle: Klucel (hydroxypropylcellulose) (HPC) 97 % of control | dose: 120.0 mg/kg/injection, schedule: Q01DX005 (ip), vehicle: Klucel (hydroxypropylcellulose) (HPC) 93 % of control | dose: 240.0 mg/kg/injection, schedule: Q01DX005 (ip), vehicle: Klucel (hydroxypropylcellulose) (HPC) 91 % of control
